Test results reported in ChEMBL document CHEMBL1134705, “Synthesis and antimicrobial activity of new 3 alpha-hydroxy-23,24-bisnorcholane polyamine carbamates” (2001).
Converted amounts (≈) assume the structure as drawn.

Key:
Serratia marcescens = assay: Evaluated for its antimicrobial activity against Serratia marcescens (27117); format: functional
Proteus mirabilis = assay: Evaluated for its antimicrobial activity against Proteus mirabilis (25933); format: functional
Micrococcus luteus = assay: Evaluated for its antimicrobial activity against Micrococcus luteus (9341); format: functional
[1] = Evaluated for its in vitro antimicrobial activity against Staphylococcus equisimilis (6580C); format: functional
Pseudomonas aeruginosa = assay: Evaluated for its antimicrobial activity against Pseudomonas aeruginosa (27853); format: functional
Klebsiella pneumoniae = assay: Evaluated for its antimicrobial activity against Klebsiella pneumoniae (10031); format: functional
[2] = In vitro minimal hemolytic activity was determined; format: functional
Salmonella typhimurium = assay: Evaluated for its antimicrobial activity against Salmonella Typhimurium (14028); format: functional, Salmonella enterica subsp. enterica serovar Typhimurium; conditions: Salmonella enterica
Staphylococcus aureus = assay: Evaluated for its in vitro antimicrobial activity against Staphylococcus aureus (6538p); format: functional
Bacillus subtilis = assay: Evaluated for its in vitro antimicrobial activity against Bacillus subtilis (6633); format: functional
Escherichia coli = assay: Evaluated for its antimicrobial activity against Escherichia coli (25922); format: functional

Structure (SMILES)	MIC (Serratia marcescens) [µg/mL]	MIC (Proteus mirabilis) [µg/mL]	MIC (Micrococcus luteus) [µg/mL]	MIC [1] [µg/mL]	MIC (Pseudomonas aeruginosa) [µg/mL]	MIC (Klebsiella pneumoniae) [µg/mL]	MIC (Salmonella typhimurium) [µg/mL]	MIC (Staphylococcus aureus) [µg/mL]	MIC (Bacillus subtilis) [µg/mL]	MIC (Escherichia coli) [µg/mL]	MHC [2] [µg/mL]
C[C@H](COC(=O)NCCCNCCCCN)[C@H]1CC[C@H]2[C@@H]3[C@H](O)C[C@H]4C[C@H](O)CC[C@]4(C)[C@H]3CC[C@]12C	> 100	> 100	3.13 (≈ 6 µM)	12.5 (≈ 24 µM)	25 (≈ 47.9 µM)	> 100	> 100	3.13 (≈ 6 µM)	6.25 (≈ 12 µM)	50 (≈ 95.8 µM)	100
C[C@H](COC(=O)NCCCNCCCCN)[C@H]1CC[C@H]2[C@@H]3CC[C@H]4C[C@H](O)CC[C@]4(C)[C@H]3CC[C@]12C	> 100	> 100	3.13 (≈ 6.19 µM)	12.5 (≈ 24.7 µM)	> 100	1.56 (≈ 3.08 µM)	12.5 (≈ 24.7 µM)	3.13 (≈ 6.19 µM)	6.25 (≈ 12.4 µM)	> 100	25
C[C@H](COC(=O)NCCCNCCCCN)[C@H]1CC[C@H]2[C@@H]3[C@H](F)C[C@H]4C[C@H](O)CC[C@]4(C)[C@H]3CC[C@]12C	> 100	> 100	3.13 (≈ 5.98 µM)	6.25 (≈ 11.9 µM)	12.5 (≈ 23.9 µM)	12.5 (≈ 23.9 µM)	> 100	3.13 (≈ 5.98 µM)	3.13 (≈ 5.98 µM)	12.5 (≈ 23.9 µM)	50
C[C@H](COC(=O)NCCCNCCCCNCCC[N+](C)(C)C)[C@H]1CC[C@H]2[C@@H]3CC[C@H]4C[C@H](O)CC[C@]4(C)[C@H]3CC[C@]12C	> 100	> 100	3.13	1.56	25	6.25	> 100	1.56	1.56	6.25	25

Further lines, with some results ahead:

MIC (Serratia marcescens) [µg/mL]	MIC (Proteus mirabilis) [µg/mL]	MIC (Micrococcus luteus) [µg/mL]	MIC [1] [µg/mL]	MIC (Pseudomonas aeruginosa) [µg/mL]	MIC (Klebsiella pneumoniae) [µg/mL]	MIC (Salmonella typhimurium) [µg/mL]	MIC (Staphylococcus aureus) [µg/mL]	MIC (Bacillus subtilis) [µg/mL]	MIC (Escherichia coli) [µg/mL]	Structure (SMILES)	MHC [2] [µg/mL]
> 100	> 100	1.56 (≈ 3.08 µM)	3.13 (≈ 6.19 µM)	> 100	3.13 (≈ 6.19 µM)	12.5 (≈ 24.7 µM)	0.78 (≈ 1.54 µM)	3.13 (≈ 6.19 µM)	25 (≈ 49.4 µM)	C[C@H](COC(=O)NCCCNCCCCN)[C@H]1CC[C@H]2[C@@H]3CC[C@@H]4C[C@H](O)CC[C@]4(C)[C@H]3CC[C@]12C	25
> 100	> 100	1.56	1.56	3.13	> 100	12.5	0.78	1.56	12.5	C[C@H](COC(=O)NCCCNCCCCNCCC[N+](C)(C)C)[C@H]1CC[C@H]2[C@@H]3CC[C@@H]4C[C@H](O)CC[C@]4(C)[C@H]3CC[C@]12C	25
> 100	> 100	3.13 (≈ 4.98 µM)	3.13 (≈ 4.98 µM)	> 100	12.5 (≈ 19.9 µM)	> 100	6.25 (≈ 9.95 µM)	3.13 (≈ 4.98 µM)	> 100	CC(C)[C@@H](CC[C@@H](C)[C@H]1CC[C@H]2[C@@H]3[C@H](O)C[C@H]4C[C@@H](NCCCNCCCCN)CC[C@]4(C)[C@H]3CC[C@]12C)OS(=O)(=O)O [SQUALAMINE]	–
